PubChem BioAssay (NCI)
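Values below derive from 48-hour exposures of cells grown in 96-well plates, with endpoints linearly interpolated between the two concentrations bracketing the appropriate inhibition level. TGI marks complete inhibition of growth.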

Tests used:
Assay in all cases: NCI anticancer screen, dose series, 48 h
[1] = test system: SK-OV-3 ovarian
[2] = test system: RXF 393 renal
[3] = test system: OVCAR-8 ovarian
[4] = test system: MOLT-4 leukemia
[5] = test system: 786-0 renal
[6] = test system: M14 melanoma
[7] = test system: ACHN renal
[8] = test system: HOP-92 NSCLC
[9] = test system: UO-31 renal
[10] = test system: HCT-116 colon
[11] = test system: MDA-MB-231 breast
[12] = test system: UACC-257 melanoma
[13] = test system: MALME-3M melanoma
[14] = test system: NCI-H460 lung
[15] = test system: NCI-H226 lung
[16] = test system: MDA-MB-435
[17] = test system: IGROV1 ovarian
[18] = test system: NCI/ADR-RES ovarian
[19] = test system: HOP-62 NSCLC
[20] = test system: MCF7 breast
[21] = test system: OVCAR-3 ovarian
[22] = test system: SNB-75 CNS
[23] = test system: SK-MEL-2 melanoma
[24] = test system: CAKI-1 renal
[25] = test system: HCT-15 colon
[26] = test system: SR leukemia
[27] = test system: NCI-H23 lung
[28] = test system: SW-620 colon
[29] = test system: NCI-H522 lung
[30] = test system: SNB-19 CNS
[31] = test system: UACC-62 melanoma
[32] = test system: SK-MEL-5 melanoma
[33] = test system: SF-539 CNS
[34] = test system: SF-295 CNS
[35] = test system: BT-549 breast
[36] = test system: HL-60(TB) leukemia
[37] = test system: COLO 205 colon
[38] = test system: KM12 colon
[39] = test system: HT29 colon
[40] = test system: T-47D breast
[41] = test system: RPMI-8226 leukemia
[42] = test system: U251 CNS
[43] = test system: CCRF-CEM leukemia
[44] = test system: A498 renal
[45] = test system: OVCAR-5 ovarian
[46] = test system: EKVX NSCLC
[47] = test system: SK-MEL-28 melanoma
[48] = test system: HCC-2998 colon
[49] = test system: SN12C renal
[50] = test system: HS 578T breast
[51] = test system: PC-3 prostate
[52] = test system: A549 NSCLC
[53] = test system: OVCAR-4 ovarian
[54] = test system: MDA-N

With `N#C[C@H](c1nc2ccccc2s1)c1nc2ccccc2nc1Cl` the TGI [1] was 73 µM, the TGI [2] was 32 µM and the TGI [3] was > 100 µM. The TGI [4] was > 100 µM, the TGI [5] was > 100 µM and the TGI [6] was 34.1 µM. It also gave a TGI [7] of 29.8 µM, a TGI [8] of 37.9 µM and a TGI [9] of 52 µM. The TGI [10] was > 100 µM, the TGI [11] was > 100 µM and the TGI [12] was 43.3 µM. For the same compound, the TGI [13] was > 100 µM, the TGI [14] was 47.3 µM and the TGI [15] was > 100 µM. The TGI [16] was > 100 µM, the TGI [17] was > 100 µM and the TGI [18] was > 100 µM. It also gave a TGI [19] of 77.1 µM, a TGI [20] of 24.8 µM and a TGI [21] of 38.9 µM. The TGI [22] was > 100 µM, the TGI [23] was > 100 µM and the TGI [24] was > 100 µM. For the same compound, the TGI [25] was 22.9 µM, the TGI [26] was > 100 µM and the TGI [27] was 32.3 µM. For the same compound, the TGI [28] was > 100 µM, the TGI [29] was > 100 µM and the TGI [30] was > 100 µM. The TGI [31] was 31.4 µM, the TGI [32] was > 100 µM and the TGI [33] was > 100 µM. The TGI [34] was 35.7 µM, the TGI [35] was 21.4 µM and the TGI [36] was > 100 µM. The TGI [37] was > 100 µM, the TGI [38] was > 100 µM and the TGI [39] was > 100 µM. The TGI [40] was > 100 µM, the TGI [41] was > 100 µM and the TGI [42] was > 100 µM. The TGI [43] was > 100 µM, the TGI [44] was > 100 µM and the TGI [45] was 39 µM. The TGI [46] was > 100 µM, the TGI [47] was > 100 µM and the TGI [48] was 7.09 µM. The TGI [49] was > 100 µM, the TGI [50] was > 100 µM and the TGI [51] was > 100 µM. For the same compound, the TGI [52] was > 100 µM, the TGI [53] was 34.1 µM and the TGI [54] was > 100 µM.
